Columns and labels:
Format in all cases: in vivo, human
[1] = test system: patients with treatment-resistant epilepsy (TRE); experiment: CBD tolerability: adverse events (MedDRA) in open-label Expanded Access Program
Protocol: (§1) All patients (or caregivers) were instructed to keep seizure diaries, which were verified during in-person visits. At each clinic visit, data on concomitant AEDs, CBD maintenance dose (mg/kg/day), seizure frequencies, and adverse events were collected.
Adverse effects were classified according to the Medical Dictionary for Regulatory Activities (MedDRA, V17.1), and those that differed by response status (diarrhoea, sedation, and abnormal liver function tests (LFTs)) were evaluated in the genetic analyses.

[2] = test system: patients with treatment-resistant epilepsy (TRE); experiment: Single-marker association of genetic variants (DMET plus array) with CBD response, logistic regression
Protocol: (§2) Baseline data collection included demographics, seizure frequencies/severity, concomitant AEDs, and laboratory data.
(§3) CLIA-certified genotyping on the Affymetrix Drug Metabolizing Enzymes and Transporters (DMET) plus array was performed through the Coriell Institute for Medical Research (Camden, NJ) in two batches, with nine samples re-genotyped due to low call rates. The DMET plus array interrogates 1,936 markers (1,931 variants and 5 copy number regions) across ˜230 drug-related genes. Affymetrix DMET Console software® (version 1.3) was used to generate genotype profiles. Of the 1,931 variants, 1,328 were removed due to location on the X-chromosome or a minor allele frequency <0.05.
Hardy-Weinberg equilibrium was evaluated, and variants p<0.0001 were further evaluated by race. Variants in linkage disequilibrium (LD) were removed (n=212; r2=0.5), leaving 396 variants in the analyses.
Relationships between variants and CBD response/tolerability were tested under dominant (AA vs Ab+bb) and recessive (AA+Ab vs bb) models using logistic regression in PLINK. Treatment group (adult vs paediatric), race, and sex were included as covariates in all analyses.
(§4) A permutation approach was used to account for multiple testing (number of permutations: 1,000), since other methods (e.g. Bonferroni correction) assume independence between markers and likely be overly conservative.

[3] = test system: patients with treatment-resistant epilepsy (TRE); experiment: Single-marker association of genetic variants (DMET plus array) with CBD-related adverse effects, logistic regression
Protocol: as §2
as §3, with “profiles.” for “profiles. Of the 1,931 variants, 1,328 were removed due to location on the X-chromosome or a minor allele frequency <0.05.”
Hardy-Weinberg equilibrium was evaluated, and variants p<0.0001 were further evaluated by race.
Treatment group (adult vs paediatric), race, and sex were included as covariates in all analyses.
as §4

[4] = test system: patients with treatment-resistant epilepsy (TRE); experiment: Multivariable model of CBD response in treatment-resistant epilepsy
Protocol: Receiver operator curves (ROC) were generated and the area under the curve (AUC) was evaluated to compare clinical, genetic, and combined clinical+genetic models. Epistasis was evaluated in PLINK to identify potential interactions among variants included in the final response model.

[5] = test system: patients with treatment-resistant epilepsy (TRE); experiment: CBD response (percent change in seizure frequency) in open-label Expanded Access Program; conditions: for Maintenance seizure frequency, Mean ± SD: per 28 days; for Percent change seizure frequency, Mean ± SD: vs baseline
From the text: as §1

SMILES: C=C(C)[C@@H]1CCC(C)=C[C@H]1c1c(O)cc(CCCCC)cc1O [CBD, cannabidiol]
- Adverse event Abnormal liver function tests, % ([1]; Non-Responders (N = 49)): (4.1%)
- Adverse event Decreased appetite, % ([1]; Non-Responders (N = 49)): (6.1%)
- Adverse event Depressed mood, % ([1]; Non-Responders (N = 49)): (14.3%)
- Adverse event Diarrhoea, % ([1]; Non-Responders (N = 49)): (44.9%)
- Adverse event Nausea/vomiting, % ([1]; Non-Responders (N = 49)): (10.2%)
- Adverse event Sedation, % ([1]; Non-Responders (N = 49)): (44.9%)
- Weight Change: 10-20% Weight loss, % ([1]; Non-Responders (N = 49)): (24.5%)
- Weight Change: <10% Weight loss, % ([1]; Non-Responders (N = 49)): (53.1%)
- Weight Change: >20% Weight loss, % ([1]; Non-Responders (N = 49)): (6.1%)
- Weight Change: No Change or increase, % ([1]; Non-Responders (N = 49)): (16.3%)
- Adverse event Abnormal liver function tests, % ([1]; Overall (N = 112)): (10.7%)
- Adverse event Decreased appetite, % ([1]; Overall (N = 112)): (10.7%)
- Adverse event Depressed mood, % ([1]; Overall (N = 112)): (10.7%)
- Adverse event Diarrhoea, % ([1]; Overall (N = 112)): (58.9%)
- Adverse event Nausea/vomiting, % ([1]; Overall (N = 112)): (12.5%)
- Adverse event Sedation, % ([1]; Overall (N = 112)): (34.8%)
- Weight Change: 10-20% Weight loss, % ([1]; Overall (N = 112)): (20.5%)
- Weight Change: <10% Weight loss, % ([1]; Overall (N = 112)): (51.8%)
- Weight Change: >20% Weight loss, % ([1]; Overall (N = 112)): (8.0%)
- Weight Change: No Change or increase, % ([1]; Overall (N = 112)): (19.6%)
- Adverse event Abnormal liver function tests, % ([1]; Responders (N = 63)): (15.9%)
- Adverse event Decreased appetite, % ([1]; Responders (N = 63)): (14.3%)
- Adverse event Depressed mood, % ([1]; Responders (N = 63)): (7.9%)
- Adverse event Diarrhoea, % ([1]; Responders (N = 63)): (69.8%)
- Adverse event Nausea/vomiting, % ([1]; Responders (N = 63)): (14.3%)
- Adverse event Sedation, % ([1]; Responders (N = 63)): (27.0%)
- Weight Change: 10-20% Weight loss, % ([1]; Responders (N = 63)): (17.5%)
- Weight Change: <10% Weight loss, % ([1]; Responders (N = 63)): (50.8%)
- Weight Change: >20% Weight loss, % ([1]; Responders (N = 63)): (9.5%)
- Weight Change: No Change or increase, % ([1]; Responders (N = 63)): (22.2%)
- increased likelihood of response ([2]; AOX1 rs6729738, recessive): 6 fold
- increased odds of response ([2]; CHST11 rs903247): 4 fold
- decreased likelihood of response ([2]; GSTM5 rs2479390): 72%
- decreased likelihood of response ([2]; GSTP1 rs1695 (recessive)): 87%
- increased likelihood of response ([2]; SULT1A2 rs1059491 (recessive)): 17 fold
- increased odds of response ([2]; UGT2B4 rs1966151): 4 fold
- association of variant with CBD-associated sedation ([3]; ABCB1 rs1045642): decreased sedation
- increased likelihood of abnormal LFTs ([3]; APOA2 rs5085, recessive): 6 fold
- association of variant with CBD-associated sedation ([3]; COMT rs4680 recessive wild-type G alleles): decreased sedation
- increased likelihood of diarrhoea ([3]; CYP2A6 rs28399433): 10 fold
- association of variant with CBD-associated sedation ([3]; CYP2C19 rs3758581): decreased sedation
- increased likelihood of diarrhoea ([3]; CYP39A1 rs7761731): ~9 fold
- increased likelihood of diarrhoea ([3]; FMO6 rs2272797): ~5 fold
- increased odds of abnormal LFTs ([3]; SLC22A2 rs316003, recessive): ~11 fold
- increased odds of abnormal LFTs ([3]; SLC22A5 rs274548, recessive): ~15 fold
- increased odds of abnormal LFTs ([3]; SLC22A11 rs1783811, recessive): ~6 fold
- association of variant with CBD-associated sedation ([3]; TPMT rs2842934): decreased sedation
- association of variant with CBD-associated sedation ([3]; UGT2A1 rs4148304 missense variant): decreased odds of sedation
- association of variant with CBD-associated diarrhoea ([3]; UGT2A1 rs11249454 intron variant): decreased odds of diarrhoea
- OR of CBD response, multivariable model ([4]; ABP1 (AOC1) rs12539): 5.67
- OR of CBD response, multivariable model ([4]; CHST11 rs903247): 5.03
- OR of CBD response, multivariable model ([4]; DPYD rs1801265): 4.50
- OR of CBD response, multivariable model ([4]; FMO2 rs7515157 (recessive)): 0.06
- OR of CBD response, multivariable model ([4]; GSTM5 rs2479390): 0.15
- OR of CBD response, multivariable model ([4]; GSTP1 rs1695 (recessive)): 0.03
- OR of CBD response, multivariable model ([4]; SLC7A7 rs1061040): 5.04
- OR of CBD response, multivariable model ([4]; UGT2B4 rs1966151): 5.02
- OR of CBD response, multivariable model ([4]; predictor: CBD dose (mg/kg/day)): 1.07
- Therapeutic response (≥50% reduction), share of patients ([5]; 112 genotyped TRE patients): 56.3%
- Maintenance seizure frequency, Median ([5]; Non-Responders (N = 49)): 14.73
- Percent change seizure frequency, Median ([5]; Non-Responders (N = 49)): −14.3%
- Maintenance seizure frequency, Mean ± SD ([5]; Non-Responders (N = 49)): 108.52 ± 327.05
- Percent change seizure frequency, Mean ± SD ([5]; Non-Responders (N = 49)): 5.65 ± 59.13%
- Maintenance seizure frequency, Median ([5]; Overall (N = 112)): 7.76
- Percent change seizure frequency, Median ([5]; Overall (N = 112)): −53.9%
- Maintenance seizure frequency, Mean ± SD ([5]; Overall (N = 112)): 58.54 ± 222.27
- Percent change seizure frequency, Mean ± SD ([5]; Overall (N = 112)): −42.08 ± 58.76%
- Maintenance seizure frequency, Median ([5]; Responders (N = 63)): 4.50
- Percent change seizure frequency, Median ([5]; Responders (N = 63)): −82%
- Maintenance seizure frequency, Mean ± SD ([5]; Responders (N = 63)): 19.65 ± 46.09
- Percent change seizure frequency, Mean ± SD ([5]; Responders (N = 63)): −79.20 ± 16.58%
- Therapeutic response (≥50% reduction), number of patients ([5]; of 112 patients): 63

From patent publication US20240301494A1, “IDENTIFICATION AND TREATMENT OF PATIENTS WITH EPILEPSY” (GW Research Limited, priority 2020, published 2024)
